Reference: PubChem BioAssay (NCI)
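Compound exposure: 48 hours, 5 concentrations, 96-well plates. Abbreviation: GI50, concentration required for 50% inhibition of growth. TGI denotes the concentration required for complete inhibition of growth.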

How the values were obtained:
Assay in all cases: NCI tumour cell line growth inhibition, 48 h
UACC-257 melanoma = system: UACC-257 melanoma
SN12C renal = system: SN12C renal
K-562 leukemia = system: K-562 leukemia
TK-10 renal = system: TK-10 renal
KM12 colon = system: KM12 colon
RXF 393 renal = system: RXF 393 renal
HCT-116 colon = system: HCT-116 colon
786-0 renal = system: 786-0 renal
CAKI-1 renal = system: CAKI-1 renal
SNB-19 CNS = system: SNB-19 CNS
COLO 205 colon = system: COLO 205 colon
SK-MEL-5 melanoma = system: SK-MEL-5 melanoma
OVCAR-5 ovarian = system: OVCAR-5 ovarian
NCI-H23 lung = system: NCI-H23 lung
NCI-H522 lung = system: NCI-H522 lung
MCF7 breast = system: MCF7 breast
OVCAR-3 ovarian = system: OVCAR-3 ovarian
SW-620 colon = system: SW-620 colon
MDA-MB-231 breast = system: MDA-MB-231 breast
SNB-75 CNS = system: SNB-75 CNS
SF-539 CNS = system: SF-539 CNS
IGROV1 ovarian = system: IGROV1 ovarian
NCI/ADR-RES ovarian = system: NCI/ADR-RES ovarian
HCT-15 colon = system: HCT-15 colon
HS 578T breast = system: HS 578T breast
HCC-2998 colon = system: HCC-2998 colon
NCI-H226 lung = system: NCI-H226 lung
MDA-MB-435 = system: MDA-MB-435
EKVX NSCLC = system: EKVX NSCLC
RPMI-8226 leukemia = system: RPMI-8226 leukemia
U251 CNS = system: U251 CNS
SF-268 CNS = system: SF-268 CNS
A498 renal = system: A498 renal
SK-MEL-28 melanoma = system: SK-MEL-28 melanoma
MALME-3M melanoma = system: MALME-3M melanoma
MOLT-4 leukemia = system: MOLT-4 leukemia
T-47D breast = system: T-47D breast
M14 melanoma = system: M14 melanoma
OVCAR-8 ovarian = system: OVCAR-8 ovarian
HL-60(TB) leukemia = system: HL-60(TB) leukemia
SF-295 CNS = system: SF-295 CNS
SK-MEL-2 melanoma = system: SK-MEL-2 melanoma
ACHN renal = system: ACHN renal
PC-3 prostate = system: PC-3 prostate
HT29 colon = system: HT29 colon
A549 NSCLC = system: A549 NSCLC
DU-145 prostate = system: DU-145 prostate
CCRF-CEM leukemia = system: CCRF-CEM leukemia
OVCAR-4 ovarian = system: OVCAR-4 ovarian
HOP-62 NSCLC = system: HOP-62 NSCLC
UACC-62 melanoma = system: UACC-62 melanoma
UO-31 renal = system: UO-31 renal
LOX IMVI melanoma = system: LOX IMVI melanoma
NCI-H460 lung = system: NCI-H460 lung
HOP-92 NSCLC = system: HOP-92 NSCLC
SR leukemia = system: SR leukemia
BT-549 breast = system: BT-549 breast

`C/C(CC(=O)NNc1ccc([N+](=O)[O-])cc1)=N\Nc1ccc([N+](=O)[O-])cc1` showed a GI50 (UACC-257 melanoma) of 39.6 µM, a TGI (UACC-257 melanoma) of over 100 µM and a GI50 (SN12C renal) of 17.8 µM. It also gave a TGI (SN12C renal) of over 100 µM, a GI50 (K-562 leukemia) of 0.622 µM and a TGI (K-562 leukemia) of over 100 µM. It also gave a GI50 (TK-10 renal) of 13.4 µM, a TGI (TK-10 renal) of 35 µM and a GI50 (KM12 colon) of 2.12 µM. The TGI (KM12 colon) was over 100 µM, the GI50 (RXF 393 renal) was 17.7 µM and the TGI (RXF 393 renal) was 46.5 µM. It also gave a GI50 (HCT-116 colon) of 6.04 µM, a TGI (HCT-116 colon) of 28.3 µM and a GI50 (786-0 renal) of 10.4 µM. For the same compound, the TGI (786-0 renal) was over 100 µM, the GI50 (CAKI-1 renal) was 1.93 µM and the TGI (CAKI-1 renal) was 32.2 µM. For the same compound, the GI50 (SNB-19 CNS) was 29.7 µM, the TGI (SNB-19 CNS) was over 100 µM and the GI50 (COLO 205 colon) was 3.8 µM. It also gave a TGI (COLO 205 colon) of over 100 µM, a GI50 (SK-MEL-5 melanoma) of 2.13 µM and a TGI (SK-MEL-5 melanoma) of 5.42 µM. For the same compound, the GI50 (OVCAR-5 ovarian) was 99.4 µM, the TGI (OVCAR-5 ovarian) was over 100 µM and the GI50 (NCI-H23 lung) was 15 µM. For the same compound, the TGI (NCI-H23 lung) was 39.3 µM, the GI50 (NCI-H522 lung) was 0.776 µM and the TGI (NCI-H522 lung) was 7.92 µM. The GI50 (MCF7 breast) was 12.9 µM, the TGI (MCF7 breast) was over 100 µM and the GI50 (OVCAR-3 ovarian) was 8.03 µM. The TGI (OVCAR-3 ovarian) was 31.1 µM, the GI50 (SW-620 colon) was 3.84 µM and the TGI (SW-620 colon) was over 100 µM. For the same compound, the GI50 (MDA-MB-231 breast) was 2.12 µM, the TGI (MDA-MB-231 breast) was 19.7 µM and the GI50 (SNB-75 CNS) was 22.1 µM. The TGI (SNB-75 CNS) was 93.5 µM, the GI50 (SF-539 CNS) was 5.97 µM and the TGI (SF-539 CNS) was over 100 µM. For the same compound, the GI50 (IGROV1 ovarian) was 14.1 µM, the TGI (IGROV1 ovarian) was over 100 µM and the GI50 (NCI/ADR-RES ovarian) was 15.1 µM. For the same compound, the TGI (NCI/ADR-RES ovarian) was over 100 µM, the GI50 (HCT-15 colon) was 19.7 µM and the TGI (HCT-15 colon) was over 100 µM. The GI50 (HS 578T breast) was 17.4 µM, the TGI (HS 578T breast) was over 100 µM and the GI50 (HCC-2998 colon) was 6.4 µM. It also gave a TGI (HCC-2998 colon) of over 100 µM, a GI50 (NCI-H226 lung) of 17.9 µM and a TGI (NCI-H226 lung) of over 100 µM. The GI50 (MDA-MB-435) was 4.56 µM, the TGI (MDA-MB-435) was over 100 µM and the GI50 (EKVX NSCLC) was 22.4 µM. It also gave a TGI (EKVX NSCLC) of over 100 µM, a GI50 (RPMI-8226 leukemia) of 7.91 µM and a TGI (RPMI-8226 leukemia) of over 100 µM. It also gave a GI50 (U251 CNS) of 10.5 µM, a TGI (U251 CNS) of 33.2 µM and a GI50 (SF-268 CNS) of 13.4 µM. The TGI (SF-268 CNS) was over 100 µM, the GI50 (A498 renal) was 7.84 µM and the TGI (A498 renal) was 47.2 µM. It also gave a GI50 (SK-MEL-28 melanoma) of 31.5 µM, a TGI (SK-MEL-28 melanoma) of over 100 µM and a GI50 (MALME-3M melanoma) of 10.6 µM. For the same compound, the TGI (MALME-3M melanoma) was 66.5 µM, the GI50 (MOLT-4 leukemia) was 6.45 µM and the TGI (MOLT-4 leukemia) was over 100 µM. It also gave a GI50 (T-47D breast) of 3.71 µM, a TGI (T-47D breast) of over 100 µM and a GI50 (M14 melanoma) of 2.11 µM. For the same compound, the TGI (M14 melanoma) was 18.3 µM, the GI50 (OVCAR-8 ovarian) was 14.2 µM and the TGI (OVCAR-8 ovarian) was 38.1 µM. The GI50 (HL-60(TB) leukemia) was 2.48 µM, the TGI (HL-60(TB) leukemia) was over 100 µM and the GI50 (SF-295 CNS) was 2.96 µM. For the same compound, the TGI (SF-295 CNS) was 18.4 µM, the GI50 (SK-MEL-2 melanoma) was 11 µM and the TGI (SK-MEL-2 melanoma) was 87.5 µM. For the same compound, the GI50 (ACHN renal) was 5.45 µM, the TGI (ACHN renal) was over 100 µM and the GI50 (PC-3 prostate) was 4.26 µM. It also gave a TGI (PC-3 prostate) of over 100 µM, a GI50 (HT29 colon) of 7.66 µM and a TGI (HT29 colon) of over 100 µM. It also gave a GI50 (A549 NSCLC) of 5.42 µM, a TGI (A549 NSCLC) of over 100 µM and a GI50 (DU-145 prostate) of 17.4 µM. For the same compound, the TGI (DU-145 prostate) was 89.9 µM, the GI50 (CCRF-CEM leukemia) was 4.76 µM and the TGI (CCRF-CEM leukemia) was over 100 µM. For the same compound, the GI50 (OVCAR-4 ovarian) was 5.92 µM, the TGI (OVCAR-4 ovarian) was over 100 µM and the GI50 (HOP-62 NSCLC) was 14.2 µM. It also gave a TGI (HOP-62 NSCLC) of 38 µM, a GI50 (UACC-62 melanoma) of 1.55 µM and a TGI (UACC-62 melanoma) of 19 µM. For the same compound, the GI50 (UO-31 renal) was 1.88 µM, the TGI (UO-31 renal) was over 100 µM and the GI50 (LOX IMVI melanoma) was 2.72 µM. It also gave a TGI (LOX IMVI melanoma) of over 100 µM, a GI50 (NCI-H460 lung) of 4.14 µM and a TGI (NCI-H460 lung) of over 100 µM. The GI50 (HOP-92 NSCLC) was 7.94 µM and the TGI (HOP-92 NSCLC) was 28.3 µM.
Work on `Nc1nc(Nc2ccccc2)sc1C(=O)c1ccc(Cl)cc1` yielded a TGI (K-562 leukemia) of over 100 µM, a TGI (TK-10 renal) of over 100 µM and a TGI (KM12 colon) of over 100 µM. The TGI (RXF 393 renal) was 5.17 µM, the TGI (SR leukemia) was over 100 µM and the TGI (BT-549 breast) was over 100 µM. For the same compound, the TGI (CAKI-1 renal) was 27.4 µM, the TGI (SNB-19 CNS) was over 100 µM and the TGI (COLO 205 colon) was over 100 µM. For the same compound, the TGI (OVCAR-5 ovarian) was over 100 µM, the TGI (NCI-H23 lung) was over 100 µM and the TGI (MCF7 breast) was over 100 µM. For the same compound, the TGI (SW-620 colon) was over 49 µM, the TGI (MDA-MB-231 breast) was over 100 µM and the TGI (SF-539 CNS) was over 100 µM. It also gave a TGI (IGROV1 ovarian) of over 100 µM, a TGI (HCT-15 colon) of over 100 µM and a TGI (EKVX NSCLC) of over 100 µM. It also gave a TGI (SF-268 CNS) of over 100 µM, a TGI (SK-MEL-28 melanoma) of over 100 µM and a TGI (MOLT-4 leukemia) of over 100 µM. It also gave a TGI (T-47D breast) of over 100 µM, a TGI (M14 melanoma) of over 100 µM and a TGI (HL-60(TB) leukemia) of over 100 µM. The TGI (SF-295 CNS) was over 100 µM, the TGI (SK-MEL-2 melanoma) was over 100 µM and the TGI (HT29 colon) was over 100 µM. For the same compound, the TGI (CCRF-CEM leukemia) was over 100 µM, the TGI (OVCAR-4 ovarian) was 3.01 µM and the TGI (HOP-92 NSCLC) was over 100 µM.
